Paper PMC4280904 (Journal of Veterinary Pharmacology and Therapeutics, 2014)
Marks after values point to notes of the source that are not given here.

Key:
[1] = system: canine idiopathic epilepsy; settings: epileptic dogs, dose escalation; ref Löscher et al., 2004; Rieck et al., 2006; cited from earlier work
[2] = biological target: CYP2D6 (Homo sapiens, UniProt P10635); assay: In vitro enzyme inhibition, recombinant CYP, fluorescent metabolites; format: in vitro ADME
[3] = Single dose and repeated; format: in vivo, beagle dogs; settings: 30 mg/kg tablets p.o.; for AUC(0-inf): AUCinf; for Vd/F: Vz/f
[4] = both, beagle, dog, plasma, po, 30 mg/kg, Fasted
[5] = both, beagle, dog, plasma, po, 30 mg/kg, Fed
[6] = both, beagle, dog, plasma, po, 30 mg/kg, Day 0, fed
[7] = both, beagle, dog, plasma, po, 30 mg/kg, Day 5, fed
[8] = female, beagle, dog, plasma, po, 30 mg/kg, Females
[9] = male, beagle, dog, plasma, po, 30 mg/kg, Males
[10] = male, beagle, dog, plasma, po, 30 mg/kg, Males, fed

CYP2D6, sequence (P10635 whole entry): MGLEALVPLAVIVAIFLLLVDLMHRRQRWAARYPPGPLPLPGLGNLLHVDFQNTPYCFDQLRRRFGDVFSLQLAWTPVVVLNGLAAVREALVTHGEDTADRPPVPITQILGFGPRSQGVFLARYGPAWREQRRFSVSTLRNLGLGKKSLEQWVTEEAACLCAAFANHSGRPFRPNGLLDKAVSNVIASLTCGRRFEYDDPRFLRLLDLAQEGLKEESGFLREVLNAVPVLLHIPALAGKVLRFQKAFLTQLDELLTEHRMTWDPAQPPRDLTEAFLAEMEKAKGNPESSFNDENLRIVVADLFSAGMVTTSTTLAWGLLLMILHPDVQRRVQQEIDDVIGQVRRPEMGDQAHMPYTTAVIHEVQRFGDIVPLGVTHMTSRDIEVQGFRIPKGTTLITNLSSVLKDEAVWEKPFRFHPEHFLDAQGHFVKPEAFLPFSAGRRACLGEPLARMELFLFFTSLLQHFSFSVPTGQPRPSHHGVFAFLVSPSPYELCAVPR

O=C1N=C(N2CCOCC2)CN1c1ccc(Cl)cc1 [Imepitoin, 1-(4-chlorophenyl)-4-morpholino-imidazolin-2-one]
anti-epileptic activity versus historical phenobarbital data [1]: comparable anti-epileptic activity
tolerability versus phenobarbital [1]: clearly superior to phenobarbital
IC50 [2]: > 100 µM
Inhibition of the specific cytochrome P450 isoform IC50, 2D6 ([2]; recombinant human CYP2D6): did not influence
maximal plasma concentrations ([3]; beagle dogs): 14.9 to 17.2 µg/mL
reduction of total AUC by co-administration with food ([3]; crossover fed vs fasted): 30%
AUCinf greater for fasted dogs ([3]; fasted vs fed): 30%
Tmax ([3]; Day 5 (after 4 days BID)): 1.75 ^* h
Terminal T½ ([3]; Fasted): 1.47 h
Terminal T½ ([3]; Fed): 1.95 ^* h
AUC(0-inf) [3, 4]: 90300 ng·h/mL
AUC(0-inf) [3, 5]: 69200 ng·h/mL
CL/F [3, 6]: 5.42 mL/min/kg
CL/F [3, 7]: 8.92 mL/min/kg
CL/F [3, 4]: 5.33 mL/min/kg
CL/F [3, 5]: 6.95 mL/min/kg
Cmax [3, 6]: 15000 ng/mL
Cmax [3, 7]: 14800 ng/mL
Cmax [3, 4]: 17200 ng/mL
Cmax [3, 5]: 14900 ng/mL
half-life ([3]; both, beagle, dog, plasma, po, 30 mg/kg, Terminal T½, Fed): 2 h
Tmax ([3]; both, beagle, dog, plasma, po, 30 mg/kg, Tmax, Day 0, fed): 2.6 h
Tmax ([3]; both, beagle, dog, plasma, po, 30 mg/kg, Tmax, Day 5, fed): 1.44 h
Tmax ([3]; both, beagle, dog, plasma, po, 30 mg/kg, Tmax, Fasted): 2.17 h
Tmax ([3]; both, beagle, dog, plasma, po, 30 mg/kg, Tmax, Fed): 2.02 h
Vd/F [3, 6]: 0.892 L/kg
Vd/F [3, 7]: 1.43 L/kg
Vd/F [3, 4]: 0.663 L/kg
Vd/F [3, 5]: 1.13 L/kg
CL/F [3, 8]: 5.83 mL/min/kg
Cmax [3, 8]: 18100 ng/mL
Tmax ([3]; female, beagle, dog, plasma, po, 30 mg/kg, Tmax, Females): 1.89 h
Vd/F [3, 8]: 0.833 L/kg
AUC(0-inf) [3, 9]: 75500 ng·h/mL
CL/F [3, 9]: 6.33 mL/min/kg
CL/F [3, 10]: 7.33 mL/min/kg
Cmax [3, 9]: 14200 ng/mL
Cmax [3, 10]: 12500 ng/mL
Tmax ([3]; male, beagle, dog, plasma, po, 30 mg/kg, Tmax, Males): 2.3 h
Tmax ([3]; male, beagle, dog, plasma, po, 30 mg/kg, Tmax, Males, fed): 2.44 h
Vd/F [3, 9]: 0.899 L/kg
Vd/F [3, 10]: 1.19 L/kg
